The text below walks through data of US7875601B2, “Cancer treatment with epothilones” (Novartis AG, priority 1998, dated 2011).

Marks after values point to notes of the source that are not given here.

Data set [1] concerns human HCT-15 colon carcinoma. The data set is described as follows: Antitumor effect against s.c. transplanted HCT-15 tumors. Format: in vivo, female BALB/c nude mice. The text has this:
Human colorectal adenocarcinoma cell line HCT-15 (ATCC CCL 225) is from the American Type Culture Collection (Rockville, Md., USA), and the cells are cultivated in vitro as recommended by the supplier. HCT-15 is an epithelial-like cell line. (Cancer Res. 39: 1020-25 [1979]) that is multi-drug resistant by virtue of over-expression of P-glycoprotein (P-gp, gp170, MDR-1;Anticancer Res. 11: 1309-12 [1991]; J. Biol. Chem. 264: 18031-40 [1989]; Int. J. Cancer 1991; 49: 696-703 [1991]) and glutathione-dependent resistance mechanisms (Int. J. Cancer 1991; 49: 688-95 [1991]).
(§1) Female or male BALB/c nu/nu (nude) mice are kept under sterile conditions (10 to 12 mice per Type III cage) with free access to food and water. Mice weigh between 20 and 25 grams at the time of tumor implantation. Tumors are established by subcutaneous injection of cells (minimum 2×10^6 cells in 100 μl PBS or medium) in carrier mice (4-8 mice per cell line). The resulting tumors are serially passaged for a minimum of three consecutive transplantations prior to start of treatment. Tumor fragments (approx. 25 mg) are implanted s.c. into the left flank of animals with a 13-gauge trocar needle while the mice are exposed to Forene (Abbott, Switzerland) anesthesia.
(§2) Tumor growth and body weights are monitored once or twice weekly. All treatments are administered intravenously (i.v.) and are initiated when a mean tumor volume of approximately 100 to 250 mm^3 is attained, depending upon the tumor type. Tumor volumes are determined using the formula […] (see Cancer Chemother. Pharmacol. 24:148-154, [1989]). Treatments with epothilone B vary the dose and the frequency of administration. Comparator agents are administered according to previously determined optimal treatment regimens. In addition to presenting changes in tumor volumes over the course of treatment, antitumor activity is expressed as T/C % (mean increase of tumor volumes of treated animals divided by the mean increase of tumor volumes of control animals multiplied by 100). Tumor. regression (%) represents the smallest mean tumor volume compared to the mean tumor volume at the start of treatment, according to the formula Regression (%)=(1−Vend/Vstart)×100(Vend=final mean tumor volume, Vstart=mean tumor volume at the start of treatment. Any animals in which the tumor has reached a size exceeding approximately 1.5 to 2.5 cm^3 are sacrificed. Details can be found below.
Tumor volumes are used as the primary indicator of activity of antitumor agents used alone or in combination, and changes in body weights are measured as an indicator of treatment tolerability.

Data set [2] relates to human COLO 205 colon tumors. In kind it is in vivo, female BALB/c nude mice. Particulars: 75 mg/kg, day 32. On the procedure: as §1, §2
Data set [3] has as its system KB-8511 (Epidermoid, MDR). The data set is described as follows: Antiproliferative assay, KB-8511. Format: cell-based, human. Particulars: KB-8511 vs parental line. On the procedure: The human epidermal (mouth) carcinoma cell line KB-8511 (a P-gp over-expressing cell line derived from the epidermoid (mouth) KB-31 carcinoma cell line) is obtained from Dr. R. M. Baker, Roswell Park Memorial Institute (Buffalo, N.Y., USA) (for description see Akiyama et al., Somat. Cell. Mol. Genetics 11, 117-126 (1985) and Fojo A., et al., Cancer Res. 45, 3002-3007 (1985)) and is cultured as previously described (Meyer, T., et al., Int. J. Cancer 43 851-856 (1989)).
Antiproliferative assays are performed as previously described (Int. J. Cancer 43, 851-6 (1989)). Briefly, cells are seeded at 1.5×10^3 cells/well into 96-well microtiter plates and incubated overnight. Compounds are added in serial dilutions on day 1. The plates are then incubated for an additional 2 to 5 days, allowing for at least one cell doubling (cell line dependent), after which the cells are fixed with 3.3% v/v glutaraldehyde, washed with water and stained with 0.05% w/v methylene blue. After washing, the dye is eluted with 3% v/v HCl and the optical density measured at 665 nm with a SpectraMax 340 (Bucherer, Basel, Switzerland). IC50 values are determined by a computerized system (SoftPro, Bucherer, Basel, Switzerland) using the formula (OD test−OD start)/(OD control−OD start)×100. IC50 is defined as the drug concentration which leads to 50% of cells per well compared to control cultures (100%) at the end of incubation period.

In data set [4] the test system is KB-8511. Particulars: KB-8511 vs KB-31; cited from earlier work.
Where [5] appears, read: 75 mg/kg, i.v., on days 14 and 21.
[6] abbreviates: 75 mg/kg, i.v., on days 14 and 21, mean ± SEM.

In the case of `O=c1[nH]cc(F)c(=O)[nH]1` [5-fluorouracil, reference compound], in data set [1] (setting [5]), the Regression result is given as “none” and the T/C turned out to be 88%. In data set [1] (setting [6]), the “% Body Weight Change” value is recorded as 9 ± 4%, the “D Body Weight” value turned out to be 2.0 ± 0.7 g and the “D Tumor Volume (mm^3)” value is on record as 1654 ± 824 mm^3. Besides, the deaths in data set [1] (two 75 mg/kg administrations) stood at 50%. In data set [2] (i.v. every 7 days (days 14, 21, 28)), this molecule showed a T/C of 18%. Besides, in data set [2] (i.v. every 7 days), the Regression entry is listed as “none” and the “Δ Tumor Volume (mm^3)” value was found to be 62 ± 12 mm^3.

For the molecule `CC(=O)O[C@H]1C(=O)[C@@]2(C)[C@H]([C@H](OC(=O)c3ccccc3)[C@]3(O)C[C@H](OC(=O)[C@H](O)[C@@H](NC(=O)c4ccccc4)c4ccccc4)C(C)=C1C3(C)C)[C@]1(OC(C)=O)CO[C@@H]1C[C@@H]2O` [paclitaxel, reference compound], the “relative resistance, IC50 (resistant line)/IC50 (parental line)” value in data set [3] is “(343)^a”.

Take `COc1cc2c(c(OC)c1OC)-c1ccc(OC)c(=O)cc1[C@@H](NC(C)=O)CC2` [colchicine]: the “relative resistance when compared with the KB-31 cells” value in data set [4] is reported as approximately 40 fold.
